Test results: patent US20250019385A1, “SPIROCYCLIC ANNULATED 2-AMINO-3-CYANO THIOPHENES AND DERIVATIVES FOR THE TREATMENT OF CANCER” (Boehringer Ingelheim International GmbH, priority 2023, published 2025)
≈ marks a conversion by molar mass, not a printed value. Like-named read-outs stand apart in the source and are kept apart here.

How the values were obtained:
[1] = Solubility measurement (DMSO solution precipitation method); type: physicochemical; conditions: aqueous buffer, kinetic from dmso stock
Experimental: A 10 mM DMSO stock solution of a test compound is used to determine its aq. solubility. The DMSO solution is diluted with an aq. medium (McIlvaine buffer with pH=4.5 or 6.8) to a final concentration of 250 μM. After 24 h of shaking at ambient temperature a potentially formed precipitate is removed by filtration. The concentration of the test compound in the filtrate is determined by LC-UV methods by calibrating the signal to the signal of a reference solution with complete dissolution of the test compound in acetonitrile/water (1:1) with known concentration.

NCI-H358 cells = test: NCI-H358 CTG proliferation assay (120 h) (NSCLC, G12C); type: cell-based; conditions: Homo sapiens
Experimental: (§1) NCI-H358 cells (ATCC No. CRL-5807) are dispensed into black 384-well plates, flat and clear bottom (Greiner, PNr. 781091) at a density of 200 cells per well in 60 μl RPMI-1640 ATCC-Formulation (Gibco #A10491)+10% FCS (fetal calf serum). Cells are incubated overnight at 37° C. in a humidified tissue culture incubator at 5% CO2. Compounds (10 mM stock in DMSO) are added at logarithmic dose series using the ECHO acoustic liquid handler system (Beckman Coulter), normalizing for added DMSO and including DMSO controls. All compound treatments are performed in technical duplicates. For the TO time point measurement, untreated cells are analyzed at the time of compound addition. Plates are incubated for 120 h, and cell viability is measured using CellTiter-Glo luminescent cell viability reagent (Promega product code G7570). Viability (stated as percent of control) is defined as relative luminescence units RLU of each well divided by the RLU of cells in DMSO controls. IC50 values are determined from viability measurements by non-linear regression using a four-parameter model.
(§2) IC50 values of representative compounds according to the invention measured with these assays in the indicated cell lines are presented in Table 46.

[2] = target: KRAS (G12D)::SOS1 protein-protein interaction (Homo sapiens (Human), UniProt P01116, G12D); test: KRAS::SOS1 AlphaScreen binding assay (KRAS G12D); conditions: GDP
Text: (§3) This assay can be used to examine the potency with which compounds according to the invention binding to (mutated) KRAS inhibit the protein-protein interaction between SOS1 and (mutated) KRAS e.g. KRAS G12C, KRAS G12D. […] Low IC50 values in this assay setting are indicative of strong inhibition of protein-protein interaction between SOS1 and KRAS:
(§4) These assays measure the inhibitory effect of compounds on KRAS mutant protein-protein interactions using the Alpha Screen technology by Perkin Elmer.
(§5) The following (mutant) enzyme forms of KRAS and interacting proteins are used in these assays at the given concentrations:
KRAS (G12D) 1-169, N-terminal 6His-tag, C-terminal avi-tag (Xtal BioStructures, Inc.); final assay concentration 10 nM and SOS1 564-1049, N-terminal 229 GST-tag, TEV cleavage site (Viva Biotech Ltd); final assay concentration 5 nM;
(§6) Test compounds dissolved in DMSO are dispensed onto assay plates (Proxiplate 384 PLUS, white, PerkinElmer; 6008289) using an Access Labcyte Workstation with the Labcyte Echo 55x. For the chosen highest assay concentration of 100 μM, 150 nL of compound solution are transferred from a 10 mM DMSO compound stock solution. A series of eleven fivefold dilutions per compound are transferred to the assay plate, compound dilutions are tested in duplicates. DMSO are added as backfill to a total volume of 150 nL.
(§7) The assays run on a fully automated robotic system in a darkened room below 100 Lux. To 150 nl of compound dilution 10 μl of a mix including KRAS mutant protein, SOS1 (final assay concentrations see above) and GDP nucleotide (Sigma G7127; final assay concentration 10 μM) in assay buffer (1×PBS, 0.1% BSA, 0.05% Tween 20) are added into columns 1-24.
(§8) After 30 minutes incubation time 5 μl of Alpha Screen bead mix in assay buffer are added into columns 1-23. Bead mix consists of AlphaLISA Glutathione Acceptor Beads (PerkinElmer, Cat No AL109) and AlphaScreen Streptavidin Donor Beads (PerkinElmer Cat No 6760002) in assay buffer at a final assay concentration of 10 μg/mL each.
(§9) Plates are kept at room temperature in a darkened incubator. After an additional 60 minutes incubation time the signal is measured in a PerkinElmer Envision HTS Multilabel Reader using the AlphaScreen specs from PerkinElmer.
(§10) Each plate contains up to 16 wells of a negative control depending on the dilution procedure (platewise or serial) (DMSO instead of test compound; with KRAS mutant::SOS1 GOP mix and bead mix; column 23) and 16 wells of a positive control (DMSO instead of test compound; with KRAS mutant::SOS1 GOP mix w/o bead mix; column 24).
(§11) As internal control known inhibitors of KRAS mutant::SOS1 interaction can be measured on each compound plate.
(§12) IC50 values are calculated and analyzed with Boehringer Ingelheim's MEGALAB C50 application using a 4 parametric logistic model.
(§13) Tables of example compounds disclosed herein contain IC50 values determined using the above assays (see Table 43).

NCI-H727 cells = test: NCI-H727 CTG proliferation assay (120 h) (lung cancer, G12V); type: cell-based; conditions: Homo sapiens
Experimental: as §1, with “NCI-H727” for “NCI-H358”, “CRL-5815)” for “CRL-5807)”, “500” for “200”, “RPMI” for “RPMI-1640”, “(PAN P04-18047)+10%” for “(Gibco #A10491)+10%”, “serum, HyClone, SH30084.03).” for “serum).”
as §2

[3] = target: KRAS (G12C)::SOS1 protein-protein interaction (Homo sapiens (Human), UniProt P01116, C118S/C51S/C80L/G12C); test: KRAS::SOS1 AlphaScreen binding assay (KRAS G12C); conditions: GDP
Text: as §3, §4, §5
KRAS (G12C) 1-169, N-terminal 6His-tag for purification, cleaved off, C-terminal avi-tag, biotinylated, mutations: C51S, C80L, C118S (in house); final assay concentration 7.5 nM and SOS1 564-1049, N-terminal 229 GST-tag, TEV cleavage site (Viva Biotech Ltd); final assay concentration 5 nM;
as §6, §7, §8, §9, §10, §11, §12, §13

[4] = McIlvaine buffer pH 4.5, 24 h, read-out: solubility pH 4.5
[5] = McIlvaine buffer pH 6.8, 24 h, read-out: solubility pH 6.8

Sequence of KRAS (G12D)::SOS1 protein-protein interaction (P01116 other isoform, or with tags, fused parts or gaps G12D): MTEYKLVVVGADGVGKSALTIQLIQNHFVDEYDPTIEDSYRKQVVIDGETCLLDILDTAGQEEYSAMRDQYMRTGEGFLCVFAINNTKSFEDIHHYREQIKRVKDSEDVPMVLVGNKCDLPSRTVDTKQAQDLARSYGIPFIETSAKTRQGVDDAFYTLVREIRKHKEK
Sequence of KRAS (G12C)::SOS1 protein-protein interaction (P01116 other isoform, or with tags, fused parts or gaps G12C/C51S/C80L/C118S): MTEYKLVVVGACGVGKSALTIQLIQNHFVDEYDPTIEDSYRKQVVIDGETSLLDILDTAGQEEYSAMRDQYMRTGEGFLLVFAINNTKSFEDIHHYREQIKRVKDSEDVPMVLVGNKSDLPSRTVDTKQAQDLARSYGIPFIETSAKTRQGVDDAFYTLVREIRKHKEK

Row | SMILES | solubility at 24 h [1, 4] [µg/mL] | solubility at 24 h [1, 5] [µg/mL] | IC50 (NCI-H358 cells) [nM] | IC50 [2] [nM] | IC50 (NCI-H727 cells) [nM] | IC50 [3] [nM]
1 | C[C@H](Oc1nc(-c2onc3c2CCC[C@@]32CCCc3sc(N)c(C#N)c32)nc2c1n(C)c(=O)n2[C@@]12COC[C@@H]1C2)[C@@H]1CC[C@H](C)N1C [I-45] | > 135 | 85 (≈ 129 µM) | 5 | 1 | 1 | 
2 | CO[C@@H]1C[C@@H]([C@H](C)Oc2nc(-c3onc4c3CCC[C@@]43CCCc4sc(N)c(C#N)c43)nc3c2n(C)c(=O)n3[C@@]23COC[C@@H]2C3)N(C)C1 [I-46] | > 150 | 67 (≈ 99.6 µM) | 6 | 1 | 2 | 
3 | C[C@H](Oc1nc(-c2onc3c2CCC[C@@]32CCCc3sc(N)c(C#N)c32)nc2c1n(C)c(=O)n2[C@H]1CO[C@@H](C)C1)[C@@H]1CCCN1C [I-47] | > 132 | 101 (≈ 157 µM) |  | 1 |  | 
4 | C[C@H](Oc1nc(-c2onc3c2CCC[C@@]32CCCc3sc(N)c(C#N)c32)nc2c1n(C)c(=O)n2[C@H]1CO[C@@H](C)C1)[C@@H]1CC[C@H](C)N1C [I-50] | 124 (≈ 188 µM) | 103 (≈ 156 µM) |  | 4 |  | 
5 | CO[C@H]1CCN(C)[C@@H]1[C@H](C)Oc1nc(-c2onc3c2CCC[C@@]32CCCc3sc(N)c(C#N)c32)nc2c1n(C)c(=O)n2[C@H]1COC[C@@H](C)C1 [I-51] | > 153 | < 1 |  | 2 |  | 
6 | CO[C@@H]1C[C@@H]([C@H](C)Oc2nc(-c3onc4c3CCC[C@@]43CCCc4sc(N)c(C#N)c43)nc3c2n(C)c(=O)n3[C@H]2COC[C@@H](C)C2)N(C)C1 [I-52] | > 153 | < 1 |  | 1 |  | 
7 | C[C@H](Oc1nc(-c2onc3c2CCC[C@@]32CCCc3sc(N)c(C#N)c32)nc2c1CN(C1COC1)C[C@]21CCOC1)[C@@H]1CC[C@H](C)N1C [I-55] | > 159 | > 137 | 5 | 1 | 3 | 
8 | C[C@H](Oc1nc(-c2onc3c2CCC[C@@]32CCCc3sc(N)c(C#N)c32)nc2c1CN(C1COC1)C[C@]21CCOC1)[C@@H]1CCCN1C [I-56] | > 157 | > 147 | 6 | 1 | 4 | 
9 | CO[C@H]1CCN(C)[C@@H]1[C@H](C)Oc1nc(-c2onc3c2CCC[C@@]32CCCc3sc(N)c(C#N)c32)nc2c1CN(C1COC1)C[C@]21CCOC1 [I-57] | > 167 | 72 (≈ 105 µM) | 4 | 1 | 3 | 
10 | CO[C@@H]1C[C@@H]([C@H](C)Oc2nc(-c3onc4c3CCC[C@@]43CCCc4sc(N)c(C#N)c43)nc3c2CN(C2COC2)C[C@]32CCOC2)N(C)C1 [I-58] | > 167 | 122 (≈ 177 µM) | 5 | 1 | 5 | 
11 | C[C@H](Oc1nc(-c2noc3c2CCC[C@@]32CCCc3sc(N)c(C#N)c32)nc2c1n(C)c(=O)n2[C@H]1CO[C@@H](C)C1)[C@@H]1CCCN1C [II-5] | > 142 | 107 (≈ 166 µM) | 1 | 1 |  | 
12 | CO[C@@H]1C[C@@H]([C@H](C)Oc2nc(-c3noc4c3CCC[C@@]43CCCc4sc(N)c(C#N)c43)nc3c2n(C)c(=O)n3[C@@]23COC[C@@H]2C3)N(C)C1 [II-6] | > 144 | 62 (≈ 92.2 µM) | 3 | 1 | 1 | 
13 | C[C@H](Oc1nc(-c2noc3c2CCC[C@@]32SCCc3sc(N)c(C#N)c32)nc2c1COC[C@]21CCOC1)[C@@H]1CCCN1C [II-16] |  |  | 1 | 1 | 1 | 

The next lines start with the values.

Row | solubility at 24 h [1, 4] [µg/mL] | solubility at 24 h [1, 5] [µg/mL] | IC50 (NCI-H358 cells) [nM] | IC50 [2] [nM] | IC50 (NCI-H727 cells) [nM] | IC50 [3] [nM] | SMILES
14 | 65 (≈ 97.6 µM) | 24 (≈ 36 µM) | 18 | 2 |  | 2 | C[C@H](Oc1nc(-c2noc3c2CCC[C@@]32CCCc3sc(N)c(C#N)c32)nc2c1CN(c1ncccn1)[C@]21CCOC1)[C@@H]1CCCN1C [II-7a]
15 | 62 (≈ 93.1 µM) | 23 (≈ 34.5 µM) | 106 | 5 |  | 3 | C[C@H](Oc1nc(-c2noc3c2CCC[C@@]32CCCc3sc(N)c(C#N)c32)nc2c1CN(c1ncccn1)[C@@]21CCOC1)[C@@H]1CCCN1C [II-7b]
16 | > 152 | > 140 | 4 | 1 | 3 |  | C[C@H](Oc1nc(-c2noc3c2CCC[C@@]32CCCc3sc(N)c(C#N)c32)nc2c1CN(C1COC1)C[C@]21CCOC1)[C@@H]1CCCN1C [II-12]
17 | > 151 | 52 (≈ 75.6 µM) | 2 | 1 | 1 |  | CO[C@H]1CCN(C)[C@@H]1[C@H](C)Oc1nc(-c2noc3c2CCC[C@@]32CCCc3sc(N)c(C#N)c32)nc2c1CN(C1COC1)C[C@]21CCOC1 [II-13]
18 | > 149 | 114 (≈ 166 µM) | 4 | 1 | 3 |  | CO[C@@H]1C[C@@H]([C@H](C)Oc2nc(-c3noc4c3CCC[C@@]43CCCc4sc(N)c(C#N)c43)nc3c2CN(C2COC2)C[C@]32CCOC2)N(C)C1 [II-14]
19 | > 138 | 102 (≈ 152 µM) | 5 | 1 | 2 |  | C[C@H](Oc1nc(-c2noc3c2CCC[C@@]32CCCc3sc(N)c(C#N)c32)nc2c1CN(C1COC1)C[C@]21CCOC1)[C@@H]1CC[C@H](C)N1C [II-17]
